Literature values, collected in US6051572A, “Azetidine, pyrrolidine and piperidine derivatives” (Merck Sharp & Dohme Ltd., priority 1995, dated 2000).

Conditions: therapeutic doses

CNS(=O)(=O)Cc1ccc2[nH]cc(CCN(C)C)c2c1 [sumatriptan]
adverse events in humans: certain adverse cardiovascular events
